The results in this text go back to ChEMBL document CHEMBL1681712, “Discovery and biological activity of a novel class I PI3K inhibitor, CH5132799” (Bioorg Med Chem Lett, 2011).

A short description of series [1]: Antiproliferative activity against human KPL4 cells. Type of series: functional, cell-based.
Series [2] in a line: Oral bioavailability in mouse. Type of series: ADME, organism-based. Conditions: in vivo.
Series [3] in a line: Half life in human liver microsomes assessed as glucuronidation. Type of series: ADME, Microsome. (Liver microsomes are vesicles of endoplasmic reticulum, rich in cytochrome P450 enzymes.)
A short description of series [4]: Half life in human liver microsomes. The format is ADME, Microsome.
The target of series [5] is Phosphatidylinositol 4,5-bisphosphate 3-kinase catalytic subunit alpha isoform (Homo sapiens, UniProt P42336). Nature of the series: Inhibition of PI3Kalpha.
Sequence of Phosphatidylinositol 4,5-bisphosphate 3-kinase catalytic subunit alpha isoform (P42336 whole entry, canonical isoform): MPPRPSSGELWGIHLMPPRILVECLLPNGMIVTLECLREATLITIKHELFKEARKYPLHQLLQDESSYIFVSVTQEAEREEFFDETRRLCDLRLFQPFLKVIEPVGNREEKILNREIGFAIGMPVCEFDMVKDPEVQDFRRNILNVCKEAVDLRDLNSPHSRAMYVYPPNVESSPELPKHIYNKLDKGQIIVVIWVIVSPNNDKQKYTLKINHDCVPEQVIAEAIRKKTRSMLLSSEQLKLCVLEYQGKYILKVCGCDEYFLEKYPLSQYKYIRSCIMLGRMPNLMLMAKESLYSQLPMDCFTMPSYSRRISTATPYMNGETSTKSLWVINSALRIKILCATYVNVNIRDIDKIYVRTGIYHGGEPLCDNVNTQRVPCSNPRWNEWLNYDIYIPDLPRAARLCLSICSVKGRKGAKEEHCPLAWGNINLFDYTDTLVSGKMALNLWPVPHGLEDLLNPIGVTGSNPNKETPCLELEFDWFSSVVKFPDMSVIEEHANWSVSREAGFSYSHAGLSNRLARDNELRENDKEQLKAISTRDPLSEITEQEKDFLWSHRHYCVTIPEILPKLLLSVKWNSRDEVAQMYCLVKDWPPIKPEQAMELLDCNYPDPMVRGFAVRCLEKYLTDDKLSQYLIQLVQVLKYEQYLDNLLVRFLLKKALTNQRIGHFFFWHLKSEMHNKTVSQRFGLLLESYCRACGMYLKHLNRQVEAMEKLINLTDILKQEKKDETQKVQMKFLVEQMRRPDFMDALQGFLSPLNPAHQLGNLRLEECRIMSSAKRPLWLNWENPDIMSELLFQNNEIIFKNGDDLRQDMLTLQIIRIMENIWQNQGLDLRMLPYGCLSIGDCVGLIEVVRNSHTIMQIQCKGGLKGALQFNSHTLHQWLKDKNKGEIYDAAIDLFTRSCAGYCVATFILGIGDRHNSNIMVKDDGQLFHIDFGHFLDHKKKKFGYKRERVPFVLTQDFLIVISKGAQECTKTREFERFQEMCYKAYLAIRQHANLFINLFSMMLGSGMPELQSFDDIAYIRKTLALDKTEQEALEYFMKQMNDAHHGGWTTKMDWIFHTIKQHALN
Series [6] has as its system PC-3. As to the kind of experiment: In vivo antitumor activity against human PC3 cells in xenograft model assessed as inhibition of tumor growth at 100 mg/kg, po qd for 11 days relative to control. The format is functional. The following applies: PC-3, 264 h. For orientation: Xenograft models place foreign cells or tissue in a host animal.
A short description of series [7]: AUC (infinity) in monkey at 1 mg/kg, po. Conditions: rhesus monkey, plasma. The format is ADME, organism-based, Macaca mulatta. Also noted: time infinity, dose 1 mg/kg, route oral.
The nature of series [8]: AUC (infinity) in dog at 1 mg/kg, po. The format is ADME, organism-based, Canis lupus familiaris. Also on record: time infinity, dose 1 mg/kg, route oral. The following applies: plasma.
Series [9] is described as follows: Oral bioavailability in dog at 1 mg/kg. The format is ADME, organism-based, Canis lupus familiaris. The following applies: in vivo.
Series [10] in a line: Half life in monkey at 0.25 mg/kg, iv. The format is ADME, organism-based, Macaca mulatta. Also noted: dose 0.25 mg/kg, route intravenous. Conditions: rhesus monkey, in vivo.
Series [11] can be described thus: Clearance in rat at 0.5 mg/kg, iv. Type of series: ADME, organism-based. Also noted: dose 0.5 mg/kg, route intravenous. The following applies: in vivo.
Series [12] has as its system KPL4. Nature of the series: Antitumor activity against human KPL4 cells expressing PI3Kalpha H1047R mutant xenografted in mouse assessed as tumor regression at 12.5 mg/kg, po administered intermittent dosing schedule 5 days on/2 days off. Type of series: functional, organism-based. Also on record: dose 12.5 mg/kg.
A short description of series [13]: Oral bioavailability in rat at 1 mg/kg. The format is ADME, organism-based. Conditions: in vivo.
Series [14] can be described thus: AUC (infinity) in rat at 0.5 mg/kg, iv. Also on record: dose 0.5 mg/kg, route intravenous, time infinity. Conditions: plasma. The format is ADME, organism-based.
Series [15] can be described thus: Oral bioavailability in monkey at 1 mg/kg. The format is ADME, organism-based, Macaca mulatta. Conditions: rhesus monkey, in vivo.
The subject of series [16] is KPL4. As to the kind of experiment: Antitumor activity against human KPL4 cells expressing PI3Kalpha H1047R mutant xenografted in mouse assessed as tumor regression at 12.5 mg/kg, po administered intermittent dosing schedule qd for 2 weeks on/1 week off. Type of series: functional, organism-based. Also noted: dose 12.5 mg/kg.
For series [17], the system named is KPL4. As to the kind of experiment: Antitumor activity against human KPL4 cells expressing PI3Kalpha H1047R mutant xenografted in mouse assessed as tumor regression at 12.5 mg/kg, po for 6 weeks. Type of series: functional, organism-based. Also on record: dose 12.5 mg/kg.
Series [18] can be described thus: AUC (infinity) in dog at 0.25 mg/kg, iv. The format is ADME, organism-based, Canis lupus familiaris. Also on record: time infinity, dose 0.25 mg/kg, route intravenous. The following applies: plasma.
A short description of series [19]: Half life in dog at 1 mg/kg, po. The format is ADME, organism-based, Canis lupus familiaris. Also noted: dose 1 mg/kg, route oral. Conditions: in vivo.
Series [20] in a line: Half life in mouse at 2 mg/kg, iv. Also on record: dose 2 mg/kg, route intravenous. Conditions: in vivo. The format is ADME, organism-based.
Series [21] has as its system PC-3. Nature of the series: In vivo antitumor activity against human PC3 cells in xenograft model assessed as inhibition of tumor growth at 25 mg/kg, po qd for 11 days relative to control. The format is functional. Conditions: PC-3, 264 h.
A short description of series [22]: Half life in rat at 1 mg/kg, po. The format is ADME, organism-based. Also noted: dose 1 mg/kg, route oral. Conditions: in vivo.
Series [23] can be described thus: Oral bioavailability in mouse at 1 mg/kg. Type of series: ADME, organism-based. The following applies: in vivo.
Series [24] has as its target Serine/threonine-protein kinase mTOR (Homo sapiens, UniProt P42345). Nature of the series: Inhibition of mTOR.
For series [25], the target named is Phosphatidylinositol 3-kinase catalytic subunit type 3 (Homo sapiens, UniProt Q8NEB9). Nature of the series: Inhibition of Vps34.
Sequence of Phosphatidylinositol 3-kinase catalytic subunit type 3 (Q8NEB9 whole entry, the tested form may be a part): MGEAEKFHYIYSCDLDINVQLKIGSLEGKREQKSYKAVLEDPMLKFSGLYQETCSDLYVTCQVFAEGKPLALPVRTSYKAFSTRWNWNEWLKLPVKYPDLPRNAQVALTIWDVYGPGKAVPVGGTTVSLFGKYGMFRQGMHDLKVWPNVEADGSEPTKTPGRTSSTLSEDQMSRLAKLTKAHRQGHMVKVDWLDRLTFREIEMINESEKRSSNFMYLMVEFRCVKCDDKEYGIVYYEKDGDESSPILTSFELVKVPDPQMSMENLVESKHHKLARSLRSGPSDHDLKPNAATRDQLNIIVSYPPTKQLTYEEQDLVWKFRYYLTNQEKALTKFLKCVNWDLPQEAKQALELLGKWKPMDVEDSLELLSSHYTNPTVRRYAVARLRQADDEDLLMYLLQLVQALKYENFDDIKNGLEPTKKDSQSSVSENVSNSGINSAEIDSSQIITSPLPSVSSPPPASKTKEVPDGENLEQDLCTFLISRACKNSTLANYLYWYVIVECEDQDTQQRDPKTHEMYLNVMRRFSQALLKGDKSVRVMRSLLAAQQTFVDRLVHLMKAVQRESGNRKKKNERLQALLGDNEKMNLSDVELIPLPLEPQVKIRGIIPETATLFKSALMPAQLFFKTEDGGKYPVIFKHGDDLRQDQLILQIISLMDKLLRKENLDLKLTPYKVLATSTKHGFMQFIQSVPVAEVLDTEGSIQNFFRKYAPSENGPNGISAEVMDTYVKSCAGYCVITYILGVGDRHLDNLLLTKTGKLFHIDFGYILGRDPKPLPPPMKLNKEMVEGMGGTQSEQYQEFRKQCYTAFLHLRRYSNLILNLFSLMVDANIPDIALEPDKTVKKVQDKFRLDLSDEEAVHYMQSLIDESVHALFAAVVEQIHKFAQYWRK
Series [26] concerns the target Phosphatidylinositol 4-phosphate 3-kinase C2 domain-containing subunit alpha (Homo sapiens, UniProt O00443). As to the kind of experiment: Inhibition of PI3KC2alpha.
The nature of series [27]: Inhibition of protein kinase.
Series [28] can be described thus: Clearance in dog at 0.25 mg/kg, iv. The format is ADME, organism-based, Canis lupus familiaris. Also noted: dose 0.25 mg/kg, route intravenous. The following applies: in vivo.
Series [29] in a line: Half life in dog at 0.25 mg/kg, iv. Type of series: ADME, organism-based, Canis lupus familiaris. Also on record: dose 0.25 mg/kg, route intravenous. Conditions: in vivo.
Series [30] is described as follows: Half life in mouse at 1 mg/kg, po. The format is ADME, organism-based. Also noted: dose 1 mg/kg, route oral. The following applies: in vivo.
Series [31] can be described thus: AUC (infinity) in rat at 1 mg/kg, po. The format is ADME, organism-based. Also noted: time infinity, dose 1 mg/kg, route oral. Conditions: plasma.
Series [32] can be described thus: Clearance in mouse at 2 mg/kg, iv. Type of series: ADME, organism-based. Also on record: dose 2 mg/kg, route intravenous. Conditions: in vivo.
The nature of series [33]: AUC (infinity) in mouse at 2 mg/kg, iv. The format is ADME, organism-based. Also on record: time infinity, dose 2 mg/kg, route intravenous. Conditions: plasma.
The nature of series [34]: Tmax in rat at 1 mg/kg, po. Conditions: in vivo. Also noted: dose 1 mg/kg, route oral. Type of series: ADME, organism-based.
The nature of series [35]: Tmax in monkey at 1 mg/kg, po. Conditions: rhesus monkey, in vivo. Also noted: dose 1 mg/kg, route oral. The format is ADME, organism-based, Macaca mulatta.
Series [36] can be described thus: AUC (infinity) in mouse at 1 mg/kg, po. The format is ADME, organism-based. Also on record: time infinity, dose 1 mg/kg, route oral. The following applies: plasma.
For series [37], the target named is Phosphatidylinositol 4-phosphate 3-kinase C2 domain-containing subunit beta (Homo sapiens, UniProt O00750). Nature of the series: Inhibition of PI3KC2beta.
A short description of series [38]: Tmax in mouse at 1 mg/kg, po. The format is ADME, organism-based. Also on record: dose 1 mg/kg, route oral. Conditions: in vivo.
Series [39] is described as follows: Half life in monkey at 1 mg/kg, po. The format is ADME, organism-based, Macaca mulatta. Also on record: dose 1 mg/kg, route oral. Conditions: rhesus monkey, in vivo.
Series [40] is described as follows: Tmax in dog at 1 mg/kg, po. Type of series: ADME, organism-based, Canis lupus familiaris. Conditions: in vivo. Also on record: dose 1 mg/kg, route oral.
Series [41] in a line: Half life in rat at 0.5 mg/kg, iv. Also noted: dose 0.5 mg/kg, route intravenous. Type of series: ADME, organism-based. The following applies: in vivo.
Series [42] is described as follows: Clearance in monkey at 0.25 mg/kg, iv. Type of series: ADME, organism-based, Macaca mulatta. The following applies: rhesus monkey, in vivo. Also noted: dose 0.25 mg/kg, route intravenous.

Broadly, the IC50 is the concentration needed to halve the response being measured. Usually half-life stands for the time in which the quantity being followed falls by half. For orientation: inhibition in vivo means the change of the read-out against control, counted positive when it falls. What is called AUC(0-inf) is the area under the concentration-time curve extrapolated to infinity. What is called clearance is the rate of elimination divided by the concentration. One may read the Tmax as the time at which the peak concentration occurs.

Active and inactive are the calls of the source. The rule behind the calls is not given here.

Sequence of Phosphatidylinositol 4-phosphate 3-kinase C2 domain-containing subunit alpha (O00443 whole entry, the tested form may be a part): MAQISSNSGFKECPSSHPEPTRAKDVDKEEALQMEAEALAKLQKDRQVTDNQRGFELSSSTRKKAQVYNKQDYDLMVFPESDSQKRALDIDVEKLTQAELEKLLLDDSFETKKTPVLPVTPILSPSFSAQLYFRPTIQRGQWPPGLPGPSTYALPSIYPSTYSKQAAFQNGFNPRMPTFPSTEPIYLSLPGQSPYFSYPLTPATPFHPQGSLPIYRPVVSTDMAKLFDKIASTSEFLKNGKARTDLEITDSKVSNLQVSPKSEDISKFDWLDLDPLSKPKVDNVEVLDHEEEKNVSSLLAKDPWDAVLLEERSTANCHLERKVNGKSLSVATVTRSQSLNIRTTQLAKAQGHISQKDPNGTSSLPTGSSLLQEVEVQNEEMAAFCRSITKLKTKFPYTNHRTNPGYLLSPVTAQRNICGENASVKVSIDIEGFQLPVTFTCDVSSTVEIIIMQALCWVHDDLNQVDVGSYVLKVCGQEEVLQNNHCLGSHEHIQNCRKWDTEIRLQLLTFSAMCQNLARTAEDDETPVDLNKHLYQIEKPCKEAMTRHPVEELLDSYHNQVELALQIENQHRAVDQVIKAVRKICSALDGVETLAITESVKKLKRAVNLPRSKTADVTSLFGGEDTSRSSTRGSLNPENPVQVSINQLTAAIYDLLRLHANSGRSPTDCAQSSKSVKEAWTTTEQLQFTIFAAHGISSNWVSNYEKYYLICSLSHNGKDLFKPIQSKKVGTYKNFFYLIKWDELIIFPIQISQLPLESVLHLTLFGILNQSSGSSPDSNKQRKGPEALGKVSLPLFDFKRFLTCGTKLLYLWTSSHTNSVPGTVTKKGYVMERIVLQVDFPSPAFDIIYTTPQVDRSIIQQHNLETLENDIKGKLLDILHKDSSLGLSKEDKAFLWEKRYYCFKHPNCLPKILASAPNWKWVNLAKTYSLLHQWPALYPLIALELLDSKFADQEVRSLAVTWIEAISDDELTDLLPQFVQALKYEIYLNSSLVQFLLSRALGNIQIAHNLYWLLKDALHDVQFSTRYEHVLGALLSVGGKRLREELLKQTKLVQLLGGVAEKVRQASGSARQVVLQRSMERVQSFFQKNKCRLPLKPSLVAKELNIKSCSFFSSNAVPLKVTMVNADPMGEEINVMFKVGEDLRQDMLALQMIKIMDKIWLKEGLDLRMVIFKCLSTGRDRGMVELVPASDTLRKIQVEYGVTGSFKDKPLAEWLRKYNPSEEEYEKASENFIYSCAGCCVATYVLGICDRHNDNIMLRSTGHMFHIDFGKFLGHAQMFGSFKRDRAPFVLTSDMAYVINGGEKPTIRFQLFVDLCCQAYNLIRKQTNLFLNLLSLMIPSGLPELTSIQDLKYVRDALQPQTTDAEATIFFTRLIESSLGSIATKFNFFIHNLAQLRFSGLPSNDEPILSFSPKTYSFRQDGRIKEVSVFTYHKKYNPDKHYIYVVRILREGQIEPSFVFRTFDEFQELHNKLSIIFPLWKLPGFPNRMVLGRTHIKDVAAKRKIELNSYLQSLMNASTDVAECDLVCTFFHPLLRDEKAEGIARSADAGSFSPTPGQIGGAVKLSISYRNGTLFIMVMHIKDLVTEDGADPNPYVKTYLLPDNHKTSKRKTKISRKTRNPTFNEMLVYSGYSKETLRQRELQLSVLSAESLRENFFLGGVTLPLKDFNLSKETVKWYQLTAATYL

For `Oc1cccc(-c2nc(N3CCOCC3)nc3c2CCN3c2ccncc2)c1`, the IC50 in series [1] came to 450 nM; in series [5] it was 8.6 nM. The bioavailability in series [2] was 1.6%. For the same compound, the results for the half-life in series [3] and in series [4] were 0.183 h and 0.35 h, respectively.
For `Nc1ncc(-c2nc(N3CCOCC3)nc3c2CCN3c2cccnc2)cn1`, the concentration for half-maximal inhibition (IC50) was found to be 15 nM in series [1] and 33 nM in series [5]. Further, the bioavailability in [2] came out at 41%. Besides, the half-life in [3] is > 1 h; in [4], 1.18 h. The inhibition in vivo at 100 mg/kg in the series with PC-3 [6] was found to be 112%.
Compound `Oc1cccc(-c2nc(N3CCOCC3)nc3c2CCN3c2cccnc2)c1` displayed an IC50 in series [5] of 41 nM.
For `Oc1cccc(-c2nc(N3CCOCC3)nc3c2CCN3c2ccc3nc[nH]c3c2)c1`, the IC50 in series [5] was 77 nM.
`CS(=O)(=O)N1CCc2c(-c3cnc(N)nc3)nc(N3CCOCC3)nc21` [IZORLISIB]: the AUC(0-inf) in series [7] was determined as 2170 ng·h/mL; in series [8], 1430 ng·h/mL; in series [14] it was 1350 ng·h/mL; in series [18], 660 ng·h/mL; in series [31], 1790 ng·h/mL; in [33], 1930 ng·h/mL. The same compound came in with an AUC(0-inf) in series [36] of 978 ng·h/mL. The bioavailability is 101% in [2]; 54.2% in series [9]; 66.2% in [13]; 78.4% in series [15]; 101% in [23]. Further, the half-life was 3.2 h in series [10]; 3.3 h in [19]; 1.7 h in [20]; 3.5 h in [22]; 1.6 h in [29]; 3.8 h in series [30]. Further, the half-life in series [39] was 6.7 h; in series [4], > 6 h; in series [41], 2.6 h. For the same compound, the clearance in [11] came out at 6.3 mL/min/kg; in series [28] it was 6.4 mL/min/kg; in [32] it was 17.5 mL/min/kg; in [42], 6.2 mL/min/kg. In addition, the outcome in the series on KPL4 [12], in the series with KPL4 [16] and with KPL4 [17] was Active. Also, in the series on PC-3 [21], the inhibition in vivo at 25 mg/kg came to 101%. The half-inhibitory concentration (IC50) in series [24] is 1600 nM; in [25] it was > 10000 nM; in series [26], > 10000 nM; in series [27], > 10000 nM; in series [37] it was 5300 nM. Further, the Tmax in series [34] was 0.8 h; in series [35] it was 4 h; in series [38], 0.25 h; in series [40], 4.5 h.
